What was measured:
SIRT1 [1] = target: T1, SIRT1 (Homo sapiens, UniProt Q96EB6); experiment: TAMRA based mass spectrometry assay of SIRT1 activity; assay type: biochemical; details: for Emax: read-out: TAMRA % Fold Act
T1 sequence (Q96EB6 1-747): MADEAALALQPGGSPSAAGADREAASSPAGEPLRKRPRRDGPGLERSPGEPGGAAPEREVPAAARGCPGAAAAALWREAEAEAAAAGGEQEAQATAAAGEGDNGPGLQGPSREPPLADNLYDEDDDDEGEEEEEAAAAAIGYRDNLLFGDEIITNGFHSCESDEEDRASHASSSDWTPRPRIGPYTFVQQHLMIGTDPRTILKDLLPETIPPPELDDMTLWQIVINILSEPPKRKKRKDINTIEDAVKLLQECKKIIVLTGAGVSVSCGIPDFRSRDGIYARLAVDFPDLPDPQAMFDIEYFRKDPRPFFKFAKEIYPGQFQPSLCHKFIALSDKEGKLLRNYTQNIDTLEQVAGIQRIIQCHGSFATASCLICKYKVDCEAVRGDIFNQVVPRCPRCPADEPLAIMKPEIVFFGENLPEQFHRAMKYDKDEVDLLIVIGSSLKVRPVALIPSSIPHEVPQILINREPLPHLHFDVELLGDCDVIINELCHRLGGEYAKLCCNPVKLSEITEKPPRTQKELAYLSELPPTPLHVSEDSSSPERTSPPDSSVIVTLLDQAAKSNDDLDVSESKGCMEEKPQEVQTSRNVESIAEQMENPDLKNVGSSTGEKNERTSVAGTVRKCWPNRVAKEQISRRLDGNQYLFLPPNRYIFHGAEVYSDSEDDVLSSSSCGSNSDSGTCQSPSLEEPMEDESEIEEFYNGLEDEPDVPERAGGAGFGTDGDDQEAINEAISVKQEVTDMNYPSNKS
Method in brief: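 Recombinant N-terminal His-tagged human SIRT1 (10 nM, E. coli) incubated 25 min at 25 °C with 0.5 μM 5TMR-labelled p53-derived acetyl-peptide and 120 μM βNAD+ in Tris-acetate pH 8 buffer with DTT and 0.05% BSA, compound at varying concentrations. Stopped with formic acid; deacetylated peptide or OAADPR measured by mass spectrometry relative to DMSO controls.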

SIRT1 [2] = target: T1, SIRT1; experiment: Trp mass spectrometry assay of SIRT1 activity; assay type: biochemical; details: for Emax: read-out: Trp % Fold Act
Method in brief: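 His-tagged SIRT1 expressed in E. coli BL21(DE3), 10 nM, incubated 25 min at 25° C. with 0.5 μM Ac-RHKK(Ac)W-NH2 peptide and 120 μM βNAD+ in 50 mM HEPES pH 7.5, […], 1 mM DTT, 0.05% BSA; formic acid stop. OAADPR or deacetylated peptide measured by mass spectrometry; EC1.5 and percent maximum activation versus DMSO control.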

[3] = concentration of test compound giving 150% activation of SIRT1, TAMRA peptide substrate
[4] = percent maximum fold activation of SIRT1, TAMRA peptide substrate
[5] = concentration of test compound giving 150% activation of SIRT1, Trp peptide substrate
[6] = percent maximum fold activation of SIRT1, Trp peptide substrate
[7] = TAMRA peptide substrate, concentration giving 150% activation of SIRT1
[8] = TAMRA peptide substrate, percent maximum fold activation
[9] = Trp peptide substrate, concentration giving 150% activation of SIRT1
[10] = Trp peptide substrate, percent maximum fold activation
[11] = TAMRA assay, concentration giving 150% activation of SIRT1
[12] = TAMRA assay, percent maximum fold activation
[13] = Trp assay, concentration giving 150% activation of SIRT1
[14] = Trp assay, percent maximum fold activation

TAMRA EC1.5 (μM) (SIRT1 [1]; [11])	Emax (SIRT1 [1]; [12])	Trp EC1.5 (μM) (SIRT1 [2]; [13])	Emax (SIRT1 [2]; [14])	SMILES	further results
				O=C(Nc1cccc(N2CCOCC2)n1)c1cnc2ccc(-c3ccc(F)c(F)c3F)nn12 [Compound 126]	TAMRA EC1.5 (μM) (SIRT1 [1]; [3]): A (EC1.5<1 μM); Emax (SIRT1 [1]; [4]): < 350%; Trp EC1.5 (μM) (SIRT1 [2]; [5]): B (EC1.5 1-25 μM); Emax (SIRT1 [2]; [6]): < 350%
				Cc1nn2ccc(-c3ccccc3C(F)(F)F)nc2c1NC(=O)c1cnccn1 [Compound 571]	TAMRA EC1.5 (SIRT1 [1]; [7]): C (EC1.5>25 μM); Emax (SIRT1 [1]; [8]): < 350%; Trp EC1.5 (SIRT1 [2]; [9]): B (EC1.5 1-25 μM); Emax (SIRT1 [2]; [10]): < 350%
				O=C(Nc1cnn2ccc(-c3ccccc3OC(F)(F)F)nc12)c1cnccn1 [Compound 584]	TAMRA EC1.5 (SIRT1 [1]; [7]): B (EC1.5 1-25 μM); Emax (SIRT1 [1]; [8]): ≥ 350%; Trp EC1.5 (SIRT1 [2]; [9]): C (EC1.5>25 μM); Emax (SIRT1 [2]; [10]): < 350%
A (EC1.5<1 μM)	≥ 350%	A (EC1.5<1 μM)	≥ 350%	O=C(Nc1cccnn1)c1cnn2ccc(-c3ccccc3OC(F)(F)F)nc12 [Compound 624]	
A (EC1.5<1 μM)	≥ 350%	B (EC1.5 1-25 μM)	≥ 350%	Cc1cc(C)nc(NC(=O)c2cnn3ccc(-c4ccccc4C(F)(F)F)nc23)n1 [Compound 806]	
				Cc1nn2ccc(-c3ccccc3C(F)(F)F)nc2c1C(=O)Nc1cccc(O)n1 [Compound 577]	TAMRA EC1.5 (SIRT1 [1]; [7]): B (EC1.5 1-25 μM); Emax (SIRT1 [1]; [8]): < 350%; Trp EC1.5 (SIRT1 [2]; [9]): A (EC1.5<1 μM); Emax (SIRT1 [2]; [10]): < 350%
B (EC1.5 1-25 μM)	< 350%	C (EC1.5>25 μM)	< 350%	N#Cc1ccccc1-c1ccc2ncc(NC(=O)c3cnccn3)n2n1 [Compound 329]	
A (EC1.5<1 μM)	≥ 350%	C (EC1.5>25 μM)	< 350%	O=C(Nc1cnn2ccc(-c3ccccc3C(F)(F)F)nc12)c1cnc(O)cn1 [Compound 828]	
A (EC1.5<1 μM)	≥ 350%	B (EC1.5 1-25 μM)	< 350%	CC(C)c1csc(C(=O)Nc2cnc3ccc(-c4ccccc4C(F)(F)F)nn23)n1 [Compound 272]	
				Cc1cc(NC(=O)c2cnc3ccc(-c4ccccc4C(F)(F)F)nn23)ccn1 [Compound 102]	TAMRA EC1.5 (μM) (SIRT1 [1]; [3]): A (EC1.5<1 μM); Emax (SIRT1 [1]; [4]): ≥ 350%; Trp EC1.5 (μM) (SIRT1 [2]; [5]): B (EC1.5 1-25 μM); Emax (SIRT1 [2]; [6]): ≥ 350%
				O=C(Nc1cnc2ccc(-c3ccccc3C(F)(F)F)nn12)c1cccnc1OCC(O)CO (stereo not drawn) [Compound 146]	TAMRA EC1.5 (μM) (SIRT1 [1]; [3]): A (EC1.5<1 μM); Emax (SIRT1 [1]; [4]): ≥ 350%; Trp EC1.5 (μM) (SIRT1 [2]; [5]): B (EC1.5 1-25 μM); Emax (SIRT1 [2]; [6]): ≥ 350%
A (EC1.5<1 μM)	≥ 350%	B (EC1.5 1-25 μM)	< 350%	Cc1cc(C)nc(C(=O)Nc2cnc3ccc(-c4ccccc4C(F)(F)F)nn23)n1 [Compound 221]	
A (EC1.5<1 μM)	≥ 350%	B (EC1.5 1-25 μM)	< 350%	Cc1cc(NC(=O)c2cnc3ccc(-c4ccccc4Cl)nn23)cc(C)n1 [Compound 260]	
				O=C(Nc1ccnc(N2CCC2)c1)c1cnc2ccc(-c3ccccc3F)nn12 [Compound 134]	TAMRA EC1.5 (μM) (SIRT1 [1]; [3]): A (EC1.5<1 μM); Emax (SIRT1 [1]; [4]): ≥ 350%; Trp EC1.5 (μM) (SIRT1 [2]; [5]): C (EC1.5>25 μM); Emax (SIRT1 [2]; [6]): < 350%
B (EC1.5 1-25 μM)	≥ 350%	C (EC1.5>25 μM)	< 350%	O=C(Nc1cnc2ccc(-c3ccccc3Cl)nn12)c1ncccn1 [Compound 290]	
				COc1cccc(C(=O)Nc2cnc3ccc(-c4ccccc4C(F)(F)F)nn23)n1 [Compound 437]	TAMRA EC1.5 (SIRT1 [1]; [7]): A (EC1.5<1 μM); Emax (SIRT1 [1]; [8]): ≥ 350%; Trp EC1.5 (SIRT1 [2]; [9]): A (EC1.5<1 μM); Emax (SIRT1 [2]; [10]): ≥ 350%
B (EC1.5 1-25 μM)	< 350%	B (EC1.5 1-25 μM)	< 350%	N#Cc1ccccc1-c1ccc2ncc(NC(=O)c3nccs3)n2n1 [Compound 335]	
				Cc1nc2ccc(-c3ccccc3C(F)(F)F)nn2c1C(=O)Nc1cccc(N2CCOCC2)n1 [Compound 71]	TAMRA EC1.5 (μM) (SIRT1 [1]; [3]): A (EC1.5<1 μM); Emax (SIRT1 [1]; [4]): ≥ 350%; Trp EC1.5 (μM) (SIRT1 [2]; [5]): A (EC1.5<1 μM); Emax (SIRT1 [2]; [6]): ≥ 350%
